Data on 33 compounds can be found in US20240246908A1 (ORION CORPORATION, priority 2021, published 2024).

What is called pIC50 is the negative decadic logarithm of the IC50, by convention in mol/L.

Each structure is given as a SMILES string. pIC50: −log10 of the molar value.

The test deals with YAP-TEAD. The test can be described thus: TEAD inhibition, Hippo Pathway TEAD Reporter MCF-7 luciferase assay. The format is cell-based. The note with it: Homo sapiens, MCF7, 24 h, Hippo Pathway TEAD Reporter MCF-7 cells, luciferase activity after 24 h; read-out: IC50 of the test compounds on YAP-TEAD inhibition (Group). Here is the method:
TEAD inhibition was assayed using Hippo Pathway TEAD Reporter—MCF-7 cell line (BPS Bioscience, Catalog #: 60618) which contains firefly luciferase gene under the control of TEAD responsive elements. In the cell line, YAP1 remains in the nucleus inducing constitutive expression of luciferase reporter. Amount of expressed luciferase was detected using ONE-Glo Luciferase Assay System (Promega) and measuring plates with Enspire Multimode Plate Reader (PerkinElmer).
Hippo Pathway TEAD Reporter—MCF-7 cells were plated on white/clear Poly-D-Lysine coated 384 plates (Corning #356660) at the density of 8500 cells/well. Next day test compounds (11 concentrations with 4 replicates) and DMSO control (0.1%) were added to the plate. After 24 h cells were lysed and luciferase activity was measured. The half maximal inhibitory concentration (IC50) of the test compounds on YAP-TEAD inhibition was determined.

Regarding `COc1ccc(Oc2ccc(C(F)(F)F)cc2)cc1NC(=O)C1CCC(=O)N1CC(N)=O` (stereo not drawn) [Compound 136, 1-(2-Amino-2-oxoethyl)-N-(2-methoxy-5-(4-(trifluoromethyl)phenoxy)phenyl)-5-oxopyrrolidine-2-carboxamide], the pIC50 was above 7.30.

As for `CN1C(=O)CC[C@@H]1C(=O)Nc1cc(Oc2ccc(F)c(F)c2)cc2c1OCCO2` [Compound 97, (R)—N-(7-(3,4-Difluorophenoxy)-2,3-dihydrobenzo[b][1,4]dioxin-5-yl)-1-methyl-5-oxopyrrolidine-2-carboxamide], the pIC50 was above 7.30.

In the case of `COc1ccc(Oc2ccc(C(F)(F)F)cn2)cc1NC(=O)C1(C)CNC(=O)N1C` (stereo not drawn) [Compound 123, N-(2-Methoxy-5-((5-(trifluoromethyl)pyridin-2-yl)oxy)phenyl)-3,4-dimethyl-2-oxoimidazolidine-4-carboxamide], the negative logarithm of the IC50 (pIC50) is 5.70 to 6.52.

Take `COc1ccc(Oc2ccc(C(F)(F)F)cn2)cc1NC(=O)[C@H]1CCC(=O)N1C` [Compound 283, (R)—N-(2-Methoxy-5-((5-(trifluoromethyl)pyridin-2-yl)oxy)phenyl)-1-methyl-5-oxopyrrolidine-2-carboxamide]: the negative logarithm of the IC50 (pIC50) is above 7.30.

With `COc1ccc(OC2CCC(C)(C)CC2)cc1NC(=O)C1CCC(=O)N1C` (stereo not drawn) [Compound 296, N-(5-((4,4-Dimethylcyclohexyl)oxy)-2-methoxyphenyl)-1-methyl-5-oxo-pyrrolidine-2-carboxamide], the pIC50 is above 7.30.

On to `COc1ccc(Oc2cccc(F)c2)cc1NC(=O)C12CCC(=O)N1CCS2` (stereo not drawn) [Compound 18, N-(5-(3-Fluorophenoxy)-2-methoxyphenyl)-5-oxotetrahydropyrrolo[2,1-b]-thiazole-7a(5H)-carboxamide], for which the pIC50 was 6.52 to 7.30.

In the case of `CN1C(=O)CCC1C(=O)Nc1cc(C#N)cc(Oc2ccc(C(F)(F)F)cc2)c1` (stereo not drawn) [Compound 306, N-(3-Cyano-5-(4-(trifluoromethyl)phenoxy)phenyl)-1-methyl-5-oxopyrrolidine-2-carboxamide], the pIC50 was 5.70 to 6.52.

For `CN1C(=O)NC[C@H]1C(=O)Nc1cc(Oc2ccc(C(F)(F)F)cn2)c(F)cc1F` [Compound 361, (S)—N-(2,4-Difluoro-5-((5-(trifluoromethyl)pyridin-2-yl)oxy)phenyl)-3-methyl-2-oxoimidazolidine-4-carboxamide], the pIC50 is above 7.30.

For `COc1ccc(Oc2ccc(C(F)(F)F)cn2)cc1NC(=O)[C@@H]1CCC(=O)N1C` [Compound 403, (S)—N-(2-Methoxy-5-((5-(trifluoromethyl)pyridin-2-yl)oxy)phenyl)-1-methyl-5-oxopyrrolidine-2-carboxamide], the negative-log IC50 (pIC50) is above 7.30.

Turning to `COc1ccc(Oc2ccc(OC(F)(F)F)cn2)cc1NC(=O)C1CCC(=O)N1C` (stereo not drawn) [Compound 115, N-(2-Methoxy-5-((5-(trifluoromethoxy)pyridin-2-yl)oxy)phenyl)-1-methyl-5-oxopyrrolidine-2-carboxamide], the negative logarithm of the IC50 (pIC50) is 6.52 to 7.30.

For `COc1ccc(O[C@@H]2CCC[C@H](C(F)(F)F)C2)cc1NC(=O)[C@H]1CCC(=O)N1C` [Compound 268, (R)—N-(2-Methoxy-5-(((1R,3S)-3-(trifluoromethyl)cyclohexyl)oxy)phenyl)-1-methyl-5-oxopyrrolidine-2-carboxamide], the negative-log IC50 (pIC50) is 6.52 to 7.30.

As to `COc1ccc(Oc2ccc(C(F)(F)F)cc2)cc1NC(=O)[C@H]1CCC(=O)N1` (stereo in doubt) [Compound 45, N-(2-Methoxy-5-(4-(trifluoromethyl)phenoxy)phenyl)-5-oxopyrrolidine-2-carboxamide], the negative-log IC50 (pIC50) was above 7.30.

For `NC(=O)CN1C(=O)CCC1C(=O)Nc1cc(Oc2ccc(C(F)(F)F)cc2)cc2c1OCC2` (stereo not drawn) [Compound 189, 1-(2-Amino-2-oxoethyl)-5-oxo-N-(5-(4-(trifluoromethyl)phenoxy)-2,3-dihydro-benzofuran-7-yl)pyrrolidine-2-carboxamide], the pIC50 was above 7.30.

Consider `COc1ccc(Oc2ccc(C#N)c(Cl)c2)cc1NC(=O)C1CCC(=O)N1C` (stereo not drawn) [Compound 309, N-(5-(3-Chloro-4-cyanophenoxy)-2-methoxyphenyl)-1-methyl-5-oxopyrrolidine-2-carboxamide], for which the pIC50 is 6.52 to 7.30.

`CN1C(=O)CCC1C(=O)Nc1cc(Oc2ccc(C(F)(F)F)cn2)cc2c1ncn2C` (stereo not drawn) [Compound 244, 1-Methyl-N-(1-methyl-6-((5-(trifluoromethyl)pyridin-2-yl)oxy)-1H-benzo-[d]imidazol-4-yl)-5-oxopyrrolidine-2-carboxamide]: the pIC50 is 6.52 to 7.30.

For `CCN1C(=O)CCC1C(=O)Nc1cc(Oc2ccc(C(F)(F)F)cc2)ccc1OC` (stereo not drawn) [Compound 68, 1-Ethyl-N-(2-methoxy-5-(4-(trifluoromethyl)phenoxy)phenyl)-5-oxopyrrolidine-2-carboxamide], the negative logarithm of the IC50 (pIC50) was above 7.30.

As to `COc1ccc(OCc2cccc(C(F)(F)F)c2)cc1NC(=O)C1CCC(=O)N1C` (stereo not drawn) [Compound 53, N-(2-Methoxy-5-((3-(trifluoromethyl)benzyl)oxy)phenyl)-1-methyl-5-oxo-pyrrolidine-2-carboxamide], the pIC50 is 6.52 to 7.30.

For `COc1ccc(OC2CCC(C(F)(F)F)CC2)cc1NC(=O)C1CCC(=O)N1C` (stereo not drawn) [Compound 255, N-(2-Methoxy-5-((4-(trifluoromethyl)cyclohexyl)oxy)phenyl)-1-methyl-5-oxo-pyrrolidine-2-carboxamide], the pIC50 is above 7.30.

As for `COc1ccc(Oc2cc(C(F)(F)F)ccn2)cc1NC(=O)C1CCNC(=O)C1` (stereo not drawn) [Compound 327, N-(2-methoxy-5-((4-(trifluoromethyl)pyridin-2-yl)oxy)phenyl)-2-oxopiperidine-4-carboxamide], the negative logarithm of the IC50 (pIC50) is 5.70 to 6.52.

In the case of `COc1ccc(Oc2ccc(C(F)(F)F)nc2)cc1NC(=O)C1CCC(=O)N1C` (stereo not drawn) [Compound 63, N-(2-Methoxy-5-((6-(trifluoromethyl)pyridin-3-yl)oxy)phenyl)-1-methyl-5-oxopyrrolidine-2-carboxamide], the pIC50 was 6.52 to 7.30.

As for `COc1ccc(COc2cccc(F)c2)cc1NC(=O)C1CCS(=O)(=O)N1C` (stereo not drawn) [Compound 13, N-(5-((3-Fluorophenoxy)methyl)-2-methoxyphenyl)-2-methylisothiazolidine-3-carboxamide 1,1-dioxide], the pIC50 was 5.70 to 6.52.

With `COc1ccc(COc2cccc(F)c2)cc1NC(=O)[C@H]1NC(=O)C[C@H]1C` (racemic) [Compound 20, rac-(cis)-N-(5-((3-Fluorophenoxy)methyl)-2-methoxyphenyl)-3-methyl-5-oxo-pyrrolidine-2-carboxamide], the negative logarithm of the IC50 (pIC50) was 5.70 to 6.52.

For `COc1ccc(Oc2ccc(C(F)(F)F)cc2F)cc1NC(=O)[C@@H]1CCC(=O)N1C` [Compound 398, (S)—N-(5-(2-Fluoro-4-(trifluoromethyl)phenoxy)-2-methoxyphenyl)-1-methyl-5-oxopyrrolidine-2-carboxamide], the pIC50 is above 7.30.

Take `COc1ccc(OC2CC3CCC2C3)cc1NC(=O)C1CCC(=O)N1C` (stereo not drawn) [Compound 96, N-(5-(Bicyclo[2.2.1]heptan-2-yloxy)-2-methoxyphenyl)-1-methyl-5-oxo-pyrrolidine-2-carboxamide]: the pIC50 was 6.52 to 7.30.

For the compound `CCN1C(=O)NCC1C(=O)Nc1cc(Oc2ccc(C(F)(F)F)cn2)ccc1OC` (stereo not drawn) [Compound 127, 3-Ethyl-N-(2-methoxy-5-((5-(trifluoromethyl)pyridin-2-yl)oxy)phenyl)-2-oxo-imidazolidine-4-carboxamide], the negative logarithm of the IC50 (pIC50) is 6.52 to 7.30.

For the compound `COc1ccc(Oc2ccc(C(F)(F)F)c(F)n2)cc1NC(=O)[C@@H]1CCC(=O)N1C` [Compound 401, (S)—N-(5-((6-Fluoro-5-(trifluoromethyl)pyridin-2-yl)oxy)-2-methoxyphenyl)-1-methyl-5-oxopyrrolidine-2-carboxamide], the negative logarithm of the IC50 (pIC50) is above 7.30.

`COc1ccc(Oc2ccc(C(F)F)cc2)cc1NC(=O)[C@H]1CCC(=O)N1C` [Compound 319, (R)—N-(5-(4-(Difluoromethyl)phenoxy)-2-methoxyphenyl)-1-methyl-5-oxo-pyrrolidine-2-carboxamide]: the negative-log IC50 (pIC50) is above 7.30.

With `CN1C(=O)CCC1C(=O)Nc1cc(Oc2ccc(C(F)(F)F)cc2)ccc1C(N)=O` (stereo not drawn) [Compound 330, N-(2-Carbamoyl-5-(4-(trifluoromethyl)phenoxy)phenyl)-1-methyl-5-oxopyrrolidine-2-carboxamide], the negative-log IC50 (pIC50) was 5.70 to 6.52.

As to `COc1cc(NC(=O)[C@H]2CCC(=O)N2C)cc(Oc2ccc(C(F)(F)F)cc2)c1` [Compound 278, (R)—N-(3-Methoxy-5-(4-(trifluoromethyl)phenoxy)phenyl)-1-methyl-5-oxo-pyrrolidine-2-carboxamide], the negative-log IC50 (pIC50) is above 7.30.

In the case of `COc1ccc(COc2cccc(C(F)(F)F)c2)cc1NC(=O)C1CCC(=O)N1C(C)=O` (stereo not drawn) [Compound 50, 1-Acetyl-N-(2-methoxy-5-((3-(trifluoromethyl)phenoxy)methyl)phenyl)-5-oxopyrrolidine-2-carboxamide], the pIC50 is 5.70 to 6.52.

In the case of `COc1ccc(Oc2ccc(C(F)F)cc2)cc1NC(=O)C1CNC(=O)N1C` (stereo not drawn) [Compound 149, N-(5-(4-(Difluoromethyl)phenoxy)-2-methoxyphenyl)-3-methyl-2-oxoimidazoli-dine-4-carboxamide], the negative logarithm of the IC50 (pIC50) was above 7.30.

`COc1ccc(Oc2cccc(C(F)(F)F)c2)cc1NC(=O)C1CCC(=O)N1C` (stereo not drawn) [Compound 11, N-(2-Methoxy-5-(3-(trifluoromethyl)phenoxy)phenyl)-1-methyl-5-oxopyrro-lidine-2-carboxamide]: the negative-log IC50 (pIC50) was 6.52 to 7.30.

With `COc1ccc(COc2cccc(C(F)(F)F)c2)cc1NC(=O)C1CCC(=O)N1` (stereo not drawn) [Compound 49, N-(2-Methoxy-5-((3-(trifluoromethyl)phenoxy)methyl)phenyl)-5-oxopyrrolidine-2-carboxamide], the negative-log IC50 (pIC50) was 6.52 to 7.30.
